Where a name gives a salt, the structure may show the parent alone.
Assays:
[1] = tested on: Intracellular cAMP levels; test: Measurement of intracellular cAMP levels in differentiated L6 cells (alpha screen cAMP kit); type: cell-based; settings: for Biological example 4: Table 2, the assay of Biological Example 2 (intracellular cAMP, agonist 1×10-^5, relative to isoproterenol); for Biological example 2 (intracellular cAMP levels, activity compared to that of isoproterenol): differentiated cells, agonist final concentration 1×10-^5, 15 min, relative to isoproterenol, Table 1
Experimental: (§1) L6-myoblasts were grown in Dulbecco's Modified Eagle's Medium (DMEM) containing 4.5 g/I glucose supplemented with 10% fetal bovine serum, 2 mM L-Glutamine, 50 U/ml penicillin, 50 μg/ml streptomycin and 10 mM HEPES. Cells were plated at 1×10^5 cells per ml in 24-well plates. After reaching 90% confluence the cells were grown in medium containing 2% FBS for 7 days where upon cells differentiated into myotubes.
Differentiated cells were serum-starved overnight and stimulated with agonist, final concentration 1×10-^5, for 15 min in stimulation buffer (HBSS supplemented with 1% BSA, 5 mM HEPES and 1 mM IBMX, pH 7.4) The medium was then aspirated and to end the reaction 100 μL of 95% EtOH was added to each well of a 24-well plate and cells were kept in −20° C. over night. The EtOH was let to evaporate and 500 μL of lysis buffer (1% BSA, 5 mM HEPES and 0.3% Tween-20, pH 7.4) was added to each well before put in −80° C. for 30 min and then kept in −20° C. Intracellular cAMP levels were detected using an alpha screen cAMP kit (6760635D from Perkin Elmer). The activity for each compound is compared to that of isoproterenol.

L6-myotubes = test: Glucose uptake in differentiated L6-myotubes (3H-2-deoxy-glucose); type: cell-based; settings: for Biological example 3: Table 2, the assay of Biological Example 1 (glucose uptake, L6-myotubes, agonist 1×10^−5, relative to isoproterenol); for Biological example 1 (glucose uptake, activity compared to that of isoproterenol): L6-myotubes, agonist final concentration 1×10^−5, relative to isoproterenol, Table 1
Experimental: as §1
Differentiated L6-myotubes were serum-starved overnight in medium containing 0.5% fatty-acid free BSA and stimulated with agonist, final concentration 1×10^−5. After 1 h 40 min cells were washed with warm, glucose free medium or PBS and another portion of agonist was added to glucose free medium. After 20 min the cells were exposed to 50 nM ^3H-2-deoxy-glucose for another 10 min before washed in ice cold glucose free medium or PBS and lysed in 0.2 M NaOH for 1 h in 60° C.

CC1(C)C[C@H]([C@@H](O)c2cncc(F)c2)N1 [Example 12, (S)-((R)-4,4-Dimethylazetidin-2-yl)(5-fluoropyridin-3-yl)methanol dihydrochloride]
Biological example 4 [1]: − (less than 25%)
Biological example 3 (L6-myotubes): + (between 50 and 25%)

CCC[C@@H]1CC[C@H]([C@@H](O)c2cncc(F)c2)N1.O=C(O)/C=C\C(=O)O [Example 4, (S)-(5-Fluoropyridin-3-yl)((2R,5R)-5-propylpyrrolidin-2-yl)methanol maleate]
Biological example 2 (intracellular cAMP levels, activity compared to that of isoproterenol) [1]: − (less than 25%)
Biological example 1 (glucose uptake, activity compared to that of isoproterenol) (L6-myotubes): ++ (between 75 and 50%)

CCC[C@H]1CCCC[C@@H]([C@H](O)c2cncc(F)c2)N1 [Example 15, (R)-(5-Fluoropyridin-3-yl)(S,7S)-7-propylazepan-2-yl)methanol dihydrochloride]
Biological example 3 (L6-myotubes): ++ (between 75 and 50%)

CCC[C@H]1CCCC[C@@H]([C@@H](O)c2cncc(F)c2)N1 [Example 16]
Biological example 3 (L6-myotubes): + (between 50 and 25%)

CCC[C@@H]1CCCC[C@H]([C@H](O)c2cncc(F)c2)N1 [Example 13, (R)-(5-Fluoropyridin-3-yl)((2R,7R)-7-propylazepan-2-yl)methanol]
Biological example 4 [1]: − (less than 25%)
Biological example 3 (L6-myotubes): − (less than 25%)

CC1(C)CC[C@H]([C@H](O)c2cncc(F)c2)N1 [Example 5, (R)-((R)-5,5-Dimethylpyrrolidin-2-yl)(5-fluoropyridin-3-yl)methanol]
Biological example 2 (intracellular cAMP levels, activity compared to that of isoproterenol) [1]: − (less than 25%)
Biological example 1 (glucose uptake, activity compared to that of isoproterenol) (L6-myotubes): +++ (more than 75% of that of isoproterenol)

CC1(C)CC[C@H]([C@H](O)c2cncc(O)c2)N1 [Example 7]
Biological example 2 (intracellular cAMP levels, activity compared to that of isoproterenol) [1]: − (less than 25%)
Biological example 1 (glucose uptake, activity compared to that of isoproterenol) (L6-myotubes): ++ (between 75 and 50%)

CC1(C)CC[C@H]([C@@H](O)c2cncc(O)c2)N1 [Example 8, 5-((S)-((R)-5,5-dimethylpyrrolidin-2-yl)(hydroxy)methyl)pyridin-3-ol]
Biological example 2 (intracellular cAMP levels, activity compared to that of isoproterenol) [1]: − (less than 25%)
Biological example 1 (glucose uptake, activity compared to that of isoproterenol) (L6-myotubes): + (between 50 and 25%)

CCC[C@H]1CCC[C@H]([C@H](O)c2cncc(F)c2)N1 [Example 1, (R)-(5-Fluoropyridin-3-yl)((2R,6S)-6-propylpiperidin-2-yl)methanol dihydrochloride]
Biological example 2 (intracellular cAMP levels, activity compared to that of isoproterenol) [1]: − (less than 25%)
Biological example 1 (glucose uptake, activity compared to that of isoproterenol) (L6-myotubes): − (less than 25%)

CC1(C)CC[C@H]([C@@H](O)c2cncc(F)c2)N1 [Example 6, (S)-((R)-5,5-Dimethylpyrrolidin-2-yl) (5-fluoropyridin-3-yl)methanol]
Biological example 2 (intracellular cAMP levels, activity compared to that of isoproterenol) [1]: − (less than 25%)
Biological example 1 (glucose uptake, activity compared to that of isoproterenol) (L6-myotubes): − (less than 25%)

CCC[C@@H]1CCCC[C@H]([C@@H](O)c2cncc(F)c2)N1 [Example 14, (S)-(5-Fluoropyridin-3-yl)((2R,7R)-7-propylazepan-2-yl)methanol]
Biological example 4 [1]: − (less than 25%)
Biological example 3 (L6-myotubes): − (less than 25%)

CCC[C@H]1CCC[C@H]([C@@H](O)c2cncc(F)c2)N1 [Example 2, (S)-(5-Fluoropyridin-3-yl)((2R,6S)-6-propylpiperidin-2-yl)methanol]
Biological example 2 (intracellular cAMP levels, activity compared to that of isoproterenol) [1]: − (less than 25%)
Biological example 1 (glucose uptake, activity compared to that of isoproterenol) (L6-myotubes): − (less than 25%)

CCC[C@@H]1CC[C@H]([C@H](O)c2cncc(F)c2)N1.O=C(O)/C=C\C(=O)O [Example 3, (R)-(5-Fluoropyridin-3-yl)((2R,5R)-5-propylpyrrolidin-2-yl)methanol maleate]
Biological example 2 (intracellular cAMP levels, activity compared to that of isoproterenol) [1]: − (less than 25%)
Biological example 1 (glucose uptake, activity compared to that of isoproterenol) (L6-myotubes): +++ (more than 75% of that of isoproterenol)

CC1(C)C[C@H]([C@H](O)c2cncc(F)c2)N1 [Example 9, (R)-((R)-4,4-Dimethylazetidin-2-yl)(5-fluoropyridine-3-yl)methanol dihydrochloride]
Biological example 4 [1]: − (less than 25%)
Biological example 3 (L6-myotubes): +++ (more than 75% of that of isoproterenol)

CC1(C)C[C@@H]([C@H](O)c2cncc(F)c2)N1 [Example 10, (R)-((S)-4,4-Dimethylazetidin-2-yl)(5-fluoropyridine-3-yl)methanol dihydrochloride]
Biological example 4 [1]: − (less than 25%)
Biological example 3 (L6-myotubes): + (between 50 and 25%)

CC1(C)C[C@@H]([C@@H](O)c2cncc(F)c2)N1 [Example 11, (S)-((S)-4,4-Dimethylazetidin-2-yl) (5-fluoropyridine-3-yl) methanol dihydrochloride]
Biological example 4 [1]: − (less than 25%)
Biological example 3 (L6-myotubes): + (between 50 and 25%)
